Measured values as given in US20250188092A1, “RIFAMYCIN ANALOGS” (THE REGENTS OF THE UNIVERSITY OF MICHIGAN, priority 2021, published 2025).

Assays:
[1] = molecular target: T1, E. coli S531L (RIF^R) RNAP (Escherichia coli, UniProt P0A8V2, S531L); assay: biochemical
T1 construct: made in house

M. tuberculosis H37Rv = assay: Minimum bactericidal concentration (MBC, CFU Assay); format: cell-based, Mycobacterium tuberculosis; settings: for MBC99 Day 7 (CFU Assay) MBC99 Rel to RMP: CFU Assay MBC99 relative to rifampin (RMP = 1); for MBC: Mycobacterium tuberculosis, 168 h, Day 7, M. tuberculosis H37Rv, ≥99% reduction in colony forming units, read-out: MBC99 Day 7 (CFU Assay) MBC99
E. coli WT RNAP = molecular target: T2, E. coli WT RNAP (Escherichia coli, UniProt P0A8V2); assay: biochemical
T2 construct: made in house

MTB H37Rv ATCC 27294 = assay: MIC, microplate Alamar Blue assay (MABA); format: cell-based, Mycobacterium tuberculosis; settings: for MIC: Mycobacterium tuberculosis, MTB H37Rv ATCC 27294, microplate Alamar Blue assay, lowest concentration giving ≥90% reduction in fluorescence, read-out: MIC90 MABA
VERO cells (ATCC CRL-81) = assay: Vero cell toxicity; format: cell-based; settings: Chlorocebus sabaeus, Vero; 72 hours exposure
Protocol: Cytotoxicity for a mammalian cell line was determined by exposing VERO cells (ATCC CRL-81) to serial dilutions of test compounds for 72 hours, followed by addition of resazurin and measurement of fluorescence after 4 hours incubation (Choules, et al., Antimnicrob. Agents Chemother. 2019, 63, e02204-02218).

[2] = molecular target: T3, E. coli D516V (RIF^R) RNAP (Escherichia coli, UniProt P0A8V2, D516V); assay: biochemical
T3 construct: made in house

DPX2 cells = settings: for DPX2 Viability @ 6.25 μM: 24 h; for DPX2 Viability @ 25 μM: human

| SMILES | IC50 [1] [µM] | MBC99 Day 7 (CFU Assay) MBC99 Rel to RMP (M. tuberculosis H37Rv) | MBC (M. tuberculosis H37Rv) [µM] | IC50 (E. coli WT RNAP) [µM] | MIC90 MABA Rel to RMP (MTB H37Rv ATCC 27294) | MIC (MTB H37Rv ATCC 27294) [µM] | IC50 (VERO cells (ATCC CRL-81)) [µM] | IC50 [2] [µM] | DPX2 Viability @ 6.25 μM (DPX2 cells) [%] | DPX2 Viability @ 25 μM (DPX2 cells) [%] |
| --- | --- | --- | --- | --- | --- | --- | --- | --- | --- | --- |
| CO[C@H]1/C=C/O[C@@]2(C)Oc3c(C)c(O)c4c(=O)c(c5oc6cc(N7CCN(CC(C)C)CC7)cc(OCCCCN7CCN(CCn8ccnc8)CC7)c6nc-5c4c3C2=O)NC(=O)/C(C)=C\C=C\[C@H](C)[C@H](O)[C@@H](C)[C@@H](O)[C@@H](C)[C@H](OC(C)=O)[C@@H]1C [Compound 6b, (7S,9E,11S,12R,13S,14R,15R,16R,17S,18S,19E,21Z)-2,15,17-trihydroxy-32-(4-{4-[2-(1H-imidazol-1-yl)ethyl]piperazin-1-yl}butoxy)-11-methoxy-3,7,12,14,16,18,22-heptamethyl-30-[4-(2-methylpropyl)piperazin-1-yl]-6,23,37-trioxo-8,27,38-trioxa-24,34-diazahexacyclo[23.11.1.1^4,7.0^5,36.0^26,35.0^28,33]octatriaconta-1(36)2,4,9,19,21,25,28(33)29,31,34-undecaen-13-yl acetate] | 52 | 0.23 | 0.03 | 0.006 | 1.6 | 0.021 | > 8 | 51 | 120 | 57 |
| CO[C@H]1/C=C/O[C@@]2(C)Oc3c(C)c(O)c4c(=O)c(c5oc6cc(N7CCN(C)CC7)cc(OCCCCN7CCN(C(=O)Cn8ccnc8)CC7)c6nc-5c4c3C2=O)NC(=O)/C(C)=C\C=C\[C@H](C)[C@H](O)[C@@H](C)[C@@H](O)[C@@H](C)[C@H](OC(C)=O)[C@@H]1C [Compound 6c, (7S,9E,11S,12R,13S,14R,15R,16R,17S,18S,19E,21Z)-2,15,17-Trihydroxy-32-(4-{4-[2-(1H-imidazol-1-yl)acetyl]piperazin-1-yl}butoxy)-11-methoxy-3,7,12,14,16,18,22-heptamethyl-30-(4-methylpiperazin-1-yl)-6,23,37-trioxo-8,27,38-trioxa-24,34-diazahexacyclo[23.11.1.1^4,7.0^5,36.0^26,35.0^28,33]octatriaconta-1(36)2,4,9,19,21,25,28(33)29,31,34-undecaen-13-yl acetate] | 230 | 0.38 | 0.05 | 0.01 | 2.7 | 0.039 | 53 | 12 | 108 | 111 |
| CO[C@H]1/C=C/O[C@@]2(C)Oc3c(C)c(O)c4c(=O)c(c5oc6cc(N7CCN(CC(C)C)CC7)cc(OCCCCN7CCN(C(=O)Cn8ccnc8)CC7)c6nc-5c4c3C2=O)NC(=O)/C(C)=C\C=C\[C@H](C)[C@H](O)[C@@H](C)[C@@H](O)[C@@H](C)[C@H](OC(C)=O)[C@@H]1C [Compound 6d, (7S,9E,11S,12R,13S,14R,15R,16R,17S,18S,19E,21Z)-2,15,17-Trihydroxy-32-(4-{4-[2-(1H-imidazol-1-yl)acetyl]piperazin-1-yl}butoxy)-11-methoxy-3,7,12,14,16,18,22-heptamethyl-30-[4-(2-methylpropyl)piperazin-1-yl]-6,23,37-trioxo-8,27,38-trioxa-24,34-diazahexacyclo[23.11.1.1^4,7.0^5,36.0^26,35.0^28,33]octatriaconta-1(36)2,4,9,19,21,25,28,30,32,34-undecaen-13-yl acetate] | 93 | 0.23 | 0.03 | 0.008 | 1.3 | 0.024 | > 8 | 59 | 104 | 90 |
| CO[C@H]1/C=C/O[C@@]2(C)Oc3c(C)c(O)c4c(=O)c(c5oc6cc(N7CCN(CC(C)C)CC7)cc(OCc7cccc(CN8CCN(C(=O)Cn9ccnc9)CC8)c7)c6nc-5c4c3C2=O)NC(=O)/C(C)=C\C=C\[C@H](C)[C@H](O)[C@@H](C)[C@@H](O)[C@@H](C)[C@H](OC(C)=O)[C@@H]1C [Compound 12c, (7S,9E,11S,12R,13S,14R,15R,16R,17S,18S,19E,21Z)-2,15,17-Trihydroxy-32-{[3-({4-[2-(1H-imidazol-1-yl)acetyl]piperazin-1-yl}methyl)phenyl]methoxy}-11-methoxy-3,7,12,14,16,18,22-heptamethyl-30-[4-(2-methylpropyl)piperazin-1-yl]-6,23,37-trioxo-8,27,38-trioxa-24,34-diazahexacyclo[23.11.1.1^4,7.0^5,36.0^26,35.0^28,33]octatriaconta-1(36)2,4,9,19,21,25,28,30,32,34-undecaen-13-yl acetate] | 66 | <0.08 | < 0.02 | 0.014 | 0.12 | 0.0048 | > 8 | 17 | 107 | 95 |
| CO[C@H]1/C=C/O[C@@]2(C)Oc3c(C)c(O)c4c(=O)c(c5oc6cccc(OCc7ccc(CN8CCN(C(=O)Cn9ccnc9)CC8)cc7)c6nc-5c4c3C2=O)NC(=O)/C(C)=C\C=C\[C@H](C)[C@H](O)[C@@H](C)[C@@H](O)[C@@H](C)[C@H](OC(C)=O)[C@@H]1C [Compound 16b, (7S,9E,11S,12R,13S,14R,15R,16R,17S,18S,19E,21Z)-2,15,17-Trihydroxy-32-{[4-({4-[2-(1H-imidazol-1-yl)acetyl]piperazin-1-yl}methyl)phenyl]methoxy}-11-methoxy-3,7,12,14,16,18,22-heptamethyl-6,23,37-trioxo-8,27,38-trioxa-24,34-diazahexacyclo[23.11.1.1^4,7.0^5,36.0^26,35.0^28,33]octatriaconta-1(36)2,4,9,19,21,25,28,30,32,34-undecaen-13-yl acetate] | 160 | 0.15 | 0.02 | 0.005 | 1.6 | 0.029 | > 8 | 24 | 117 | 76 |
| CO[C@H]1/C=C/O[C@@]2(C)Oc3c(C)c(O)c4c(=O)c(c5oc6cc(N7CCN(CC(C)C)CC7)cc(OCc7ccc(CN8CCN(C(=O)Cn9ccnc9)CC8)cc7)c6nc-5c4c3C2=O)NC(=O)/C(C)=C\C=C\[C@H](C)[C@H](O)[C@@H](C)[C@@H](O)[C@@H](C)[C@H](OC(C)=O)[C@@H]1C [Compound 17c, (7S,9E,11S,12R,13S,14R,15R,16R,17S,18S,19E,21Z)-2,15,17-Trihydroxy-32-{[4-({4-[2-(1H-imidazol-1-yl)acetyl]piperazin-1-yl}methyl)phenyl]methoxy}-11-methoxy-3,7,12,14,16,18,22-heptamethyl-30-[4-(2-methylpropyl)piperazin-1-yl]-6,23,37-trioxo-8,27,38-trioxa-24,34-diazahexacyclo[23.11.1.1^4,7.0^5,36.0^26,35.0^28,33]octatriaconta-1(36)2,4,9,19,21,25,28,30,32,34-undecaen-13-yl acetate] | 100 | 0.15 | 0.02 | 0.02 | 1.3 | 0.023 | > 8 | 12 | 102 | 94 |
